Data from patent US20260167622A1, “PAN-KRAS DEGRADING AGENT, AND PREPARATION METHOD THEREFOR AND USE THEREOF” (LEADINGTAC PHARMACEUTICAL (SHAOXING) CO., LTD., priority 2022, published 2026).

Experiments:
Assay type in all cases: cell-based
[1] = tested on: KRAS G12V mutant human colorectal cancer cell SW620; test: 3D cell proliferation inhibition assay, SW620; conditions: SW-620, 168 h, 3D culture, 7 days, CTG
Source text: (§1) Test Example 6: 3D Cell Proliferation Inhibition Assay
(§2) The inhibitory effects of the compounds on 3D cell proliferation were investigated on KRAS G12C mutant human non-small cell lung cancer cell NCI-H358, KRAS G12D mutant human lung cancer cell A427, KRAS G12D mutant human gastric cancer cell AGS, KRAS G12D mutant human metastatic pancreatic cancer cell AsPc-1, KRAS G12V mutant human lung squamous carcinoma cell SW900, KRAS G12V mutant human colorectal cancer cell SW620, KRAS G13D mutant human colorectal cancer epithelial cell DLD-1, and KRAS WT human gastric cancer cell MKN1. The specific procedures were as follows:
(§3) 10 μL of each compound solution diluted in a gradient was added to corresponding wells of a 96-well low-adsorption microplate (PerkinElmer), so that the final concentrations of the test compounds in the reaction system were in a range of 10000-0.026 nM. The final concentration of DMSO was 0.2%. Then 90 µL of cells were correspondingly seeded into each well to achieve a cell density of 5×10^2 cells/well (the cell density of SW900 was 5×10^3 cells/well, and the cell density of MKN1 was 1×10^3 cells/well). In addition to test wells for the test compounds, both a DMSO control well and a medium control well were set, with the DMSO control well containing DMSO and cells and the medium well containing only a medium. After the sample loading, the 96-well low-adsorption microplate was incubated in an incubator at 37° C. with […] for 7 days. After 7 days, the microplate was taken out, and 100 μL of CTG reagent (Promega) was added to each well. The plate was incubated at room temperature for 60 m and read on a microplate reader EnVision by the chemiluminescence program. The inhibition rates of the compounds at each concentration were calculated using the formula for the percentage inhibition of cell proliferation: inhibition rate 00=(mean value of DMSO control group−single concentration reading value of compound)/(mean value of DMSO control group−mean value of medium control group)×100. Then non-linear curve fillings for logarithmic concentration-inhibition rate were performed by GraphPad Prism 8, and the IC50 values of the compounds were obtained (Table 6).

[2] = tested on: KRAS G12D mutant human metastatic pancreatic cancer cell AsPc-1; test: 3D cell proliferation inhibition assay, AsPc-1; conditions: ASPC1, 168 h, 3D culture, 7 days, CTG
Source text: as §1, §2, §3

[3] = tested on: KRAS WT human gastric cancer cell MKN1; test: 3D cell proliferation inhibition assay, MKN1; conditions: MKN-1, 168 h, 3D culture, 7 days, CTG
Source text: as §1, §2, §3

[4] = molecular target: T1, KRAS G12V protein in SW900 cells (Homo sapiens, UniProt P01116, G12V); test: KRAS degradation assay (Western Blot) in SW900 cells; conditions: 24 h
T1 construct: endogenous in cells; host or cells: SW900
Source text: (§4) Test Example 5: KRAS G12C, KRAS G12D, KRAS G12V, KRAS G13D, and KRAS WT (Expanded) Degradation Assays
(§5) The degradation effect of the compounds on KRAS was investigated on KRAS G12C mutant human non-small cell lung cancer cell NCI-H358, KRAS G12D mutant human metastatic pancreatic cancer cell AsPc-1, KRAS G12D mutant human lung cancer cell A427, KRAS G12V mutant human colorectal cancer cell SW620, KRAS G12V mutant human lung cancer cell SW900, KRAS G13D mutant human colorectal cancer epithelial cell DLD-1, and KRAS WT human gastric cancer cell MKN-1. The specific procedures were as follows: 0.95 mL of cells were seeded into each well of a 24-well cell culture plate to achieve a cell density of 5×10^5 cells/well; and the cell plate was incubated in an incubator at 37° C. with 5% CO2 overnight. Then 50 μL of the compound solution after dilution was added to each of the wells with the corresponding cells, so that the final concentration of the compound was in a range of 0.03-3000 nM. The final concentration of DMSO was 0.25%. After the compounds were added, the cell plate was incubated in an incubator at 37° C. with 5% CO2 for 24 h. The culture medium in the 24-well cell culture plate was then removed, and the plate was washed twice with 1×PBS (KeyGEN). 120 μL of RIPA (strong) lysis buffer (Beyotime) (supplemented with 1 mM phenylmethylsulfonyl fluoride, a protease inhibitor mixture (Beyotime), and a protease phosphatase inhibitor mixture (Beyotime)) was added to lyse adherent SW900 cells at the bottom of the cell culture plate. After the plate was left to stand on ice for 30 min, the protein lysate in each well was transferred to a 1.5 mL centrifuge tube and centrifuged at 15000 g for 20 min at 4° C. The cell lysate supernatants after centrifugation were cryopreserved in a refrigerator at −80° C. for later use.
(§6) After the samples of the cell lysate supernatants that had been prepared were thawed from the refrigerator at −80° C., the total protein concentrations of the cell lysates were determined using a BCA protein quantification kit (Tiangen). The total protein concentrations of the samples were then adjusted to 0.5 μg/μL with PBS and 5×SDS-PAGE protein loading buffer (Beyotime), and the samples were incubated in a water bath at 100° C. for 15 min. The samples were then incubated in an ice bath for 5 min and centrifuged at 14000 g for 1 min at 4° C., and the supernatants were mixed well as loading samples for the Western Blot assay. The samples were loaded into wells of a 10% precast gel (KeyGEN) with a loading volume of 10 μL (total protein: 5 μg), a sufficient Tris-MOPS-SDS running buffer (Adamas) was added, and then electrophoresis was performed at a constant voltage of 120 V for 55 min. After the electrophoresis, the proteins on the gel were transferred to PVDF membranes at a constant current of 250 mA for 55 min. After the membrane transfer, the PVDF membranes were incubated in 1× Quick Block blocking buffer (Beyotime)at room temperature for 30 min. After the blocking, the PVDF membranes were separately incubated at 4° C. overnight with the KRAS antibody (Abcam) diluted in a ratio of 1:1000 and the β-actin antibody (Abcam) diluted in a ratio of 1:2000 in 5% BSA as the diluent, and then washed with 1×TBST buffer (2.4 g of Tris, 8.8 g of NaCl, 1.5 mL of Tween 20, with pH adjusted to 7.4, with the volume brought to 1 L) 3 times for 10 min/time. The membranes were incubated with a secondary antibody (Abcam) diluted in 5% BSA at room temperature for 2 h, and then washed with 1×TBST buffer 3 times for 10 min/time. Finally, the membranes were incubated with Clarity Western ECL Substrate (BIO-RAD) for 5 min for luminescence and color development, and a ChemiScope 6200 Touch chemiluminescence imaging system (Clinx) was used for color development and protein mapping. Gray value analysis of the protein maps was performed using the chemiluminescence analysis software (Clinx). […]

[5] = tested on: KRAS G12V mutant human lung squamous carcinoma cell SW900; test: 3D cell proliferation inhibition assay, SW900; conditions: SW900, 168 h, 3D culture, 7 days, CTG
Source text: as §1, §2, §3

[6] = molecular target: T2, KRAS G13D protein in DLD-1 cells (Homo sapiens, UniProt P01116, G13D); test: KRAS degradation assay (Western Blot) in DLD-1 cells; conditions: 24 h
T2 construct: endogenous in cells; host or cells: DLD-1
Source text: as §4, §5, §6

[7] = molecular target: T3, KRAS G12V protein in SW620 cells (Homo sapiens, UniProt P01116, G12V); test: KRAS degradation assay (Western Blot) in SW620 cells
T3 construct: endogenous in cells; host or cells: SW620
Source text: as §4, §5, §6

[8] = tested on: KRAS G12C mutant human non-small cell lung cancer cell NCI-H358; test: 3D cell proliferation inhibition assay, NCI-H358; conditions: NCI-H358, 168 h, 3D culture, 7 days, CTG
Source text: as §1, §2, §3

[9] = tested on: KRAS G13D mutant human colorectal cancer epithelial cell DLD-1; test: 3D cell proliferation inhibition assay, DLD-1; conditions: DLD-1, 168 h, 3D culture, 7 days, CTG
Source text: as §1, §2, §3

[10] = tested on: KRAS G12D mutant human lung cancer cell A427; test: 3D cell proliferation inhibition assay, A427; conditions: A-427, 168 h, 3D culture, 7 days, CTG
Source text: as §1, §2, §3

[11] = tested on: KRAS G12D mutant human gastric cancer cell AGS; test: 3D cell proliferation inhibition assay, AGS; conditions: 168 h, 3D culture, 7 days, CTG
Source text: as §1, §2, §3

T1 sequence (P01116 1-188 isoform P01116-2 G12V): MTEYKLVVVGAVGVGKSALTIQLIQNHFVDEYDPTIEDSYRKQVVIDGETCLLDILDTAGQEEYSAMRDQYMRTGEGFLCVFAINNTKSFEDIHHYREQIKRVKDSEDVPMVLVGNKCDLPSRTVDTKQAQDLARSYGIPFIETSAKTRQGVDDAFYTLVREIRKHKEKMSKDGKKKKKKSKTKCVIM
T3 sequence (P01116 1-188 isoform P01116-2 G12V): as above
T2 sequence (P01116 1-188 isoform P01116-2 G13D): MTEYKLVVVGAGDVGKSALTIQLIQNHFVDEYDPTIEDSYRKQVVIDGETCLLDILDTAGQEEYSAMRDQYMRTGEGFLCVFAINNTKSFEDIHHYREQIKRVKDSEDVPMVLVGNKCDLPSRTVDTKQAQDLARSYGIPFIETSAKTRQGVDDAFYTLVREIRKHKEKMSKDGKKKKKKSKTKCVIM

For `C#Cc1c(F)ccc2cc(O)cc(-c3ccc4c(N5CCC[C@@](C)(O)C5)nc(OCC5(CN6CCN(CC7CCC8(CC7)CCN(C(=O)c7ccc(C)c(N9CCC(=O)NC9=O)c7)CC8)CC6)CC5)nc4c3F)c12` [Example 41, (R)-1-(5-(9-((4-((1-(((7-(8-ethynyl-7-fluoro-3-hydroxynaphthalen-1-yl)-8-fluoro-4-(3-hydroxy-3-methylpiperidin-1-yl)quinazolin-2-yl)oxy)methyl)cyclopropyl)methyl)piperazin-1-yl)methyl)-3-azaspiro[5.5]undecane-3-carbonyl)-2-methylphenyl)dihydropyrimidine-2,4(1H,3H)-dione], the IC50 [1] was 9.08 nM, the IC50 [2] was 50 to 100 nM and the IC50 [3] was at most 50 nM. For the same compound, the DC50 [4] was at most 50 nM, the Dmax [4] was 80 to 100% and the IC50 [5] was at most 50 nM.
`C#Cc1c(F)ccc2cc(O)cc(-c3ncc4c(N5CCC[C@@](C)(O)C5)nc(OC[C@H](C)CN5CCN(CC6CCC7(CC6)CCN(C(=O)c6ccc(CC)c(N8CCC(=O)NC8=O)c6)CC7)CC5)nc4c3F)c12` [Example 133, 1-(2-ethyl-5-(9-((4-((R)-3-((7-(8-ethynyl-7-fluoro-3-hydroxynaphthalen-1-yl)-8-fluoro-4-((R)-3-hydroxy-3-methylpiperidin-1-yl)pyrido[4,3-d]pyrimidin-2-yl)oxy)-2-methylpropyl)piperazin-1-yl)methyl)-3-azaspiro[5.5]undecane-3-carbonyl)phenyl)dihydropyrimidine-2,4(1H,3H)-dione] was tested, and the IC50 [1] was 2.93 nM, the IC50 [2] was 24 nM and the IC50 [3] was 9.19 nM. The DC50 [6] was 7.28 nM, the Dmax [6] was 100% and the DC50 ([7]; 24 h) was 6.73 nM. For the same compound, the Dmax ([7]; SW-620, 24 h) was 98.9%, the IC50 [8] was 5.58 nM and the IC50 [9] was 5.68 nM.
In the case of `C#Cc1c(F)ccc2cc(O)cc(-c3ncc4c(N5CCC[C@@](C)(O)C5)nc(OCC5(CN6CCN(CC7CCC8(CC7)CCN(C(=O)c7ccc9c(c7)C(=O)N(C7CCC(=O)NC7=O)C9=O)CC8)CC6)CC5)nc4c3F)c12` (stereo partly drawn) [Example 13, 2-(2,6-dioxopiperidin-3-yl)-5-(9-((4-((1-(((7-(8-ethynyl-7-fluoro-3-hydroxynaphthalen-1-yl)-8-fluoro-4-((R)-3-hydroxy-3-methylpiperidin-1-yl)pyrido[4,3-d]pyrimidin-2-yl)oxy)methyl)cyclopropyl)methyl)piperazin-1-yl)methyl)-3-azaspiro[5.5]undecane-3-carbonyl)isoindoline-1,3-dione], the IC50 [3] is reported as 50 to 100 nM, the IC50 [8] is reported as 500 to 1000 nM and the IC50 [5] is reported as at most 50 nM. The IC50 [10] was 500 to 1000 nM and the IC50 [11] was 500 to 1000 nM.
With `C#Cc1cccc2cc(O)cc(-c3ncc4c(N5CCC[C@@](C)(O)C5)nc(OCC5(CN6CCN(CC7CCC8(CC7)CCN(C(=O)c7ccc(C)c(N9CCC(=O)NC9=O)c7)CC8)CC6)CC5)nc4c3F)c12` [Example 27, (R)-1-(5-(9-((4-((1-(((7-(8-ethynyl-3-hydroxynaphthalen-1-yl)-8-fluoro-4-(3-hydroxy-3-methylpiperidin-1l-yl)pyrido[4,3-d]pyrimidin-2-yl)oxy)methyl)cyclopropyl)methyl)piperazin-1-yl)methyl)-3-azaspiro[5.5]undecane-3-carbonyl)-2-methylphenyl)dihydropyrimidine-2,4(1H,3H)-dione] the IC50 [1] was 3.47 nM, the IC50 [2] was at most 50 nM and the IC50 [3] was at most 50 nM. For the same compound, the IC50 [8] was at most 50 nM, the DC50 [4] was at most 50 nM and the Dmax [4] was 80 to 100%. The IC50 [5] was at most 50 nM.
`CCc1cccc2cc(O)cc(-c3ccc4c(N5CCC[C@@](C)(O)C5)nc(OCC5(CN6CCN(CC7CCC8(CC7)CCN(C(=O)c7ccc(OC)c(N9CCC(=O)NC9=O)c7)CC8)CC6)CC5)nc4c3F)c12` [Example 23, (R)-1-(5-(9-((4-((1-(((7-(8-ethyl-3-hydroxynaphthalen-1-yl)-8-fluoro-4-(3-hydroxy-3-methylpiperidin-1-yl)quinazolin-2-yl)oxy)methyl)cyclopropyl)methyl)piperazin-1-yl)methyl)-3-azaspiro[5.5]undecane-3-carbonyl)-2-methoxyphenyl)dihydropyrimidine-2,4(1H,3H)-dione] gave an IC50 [1] of 12.3 nM, an IC50 [2] of 64.2 nM and an IC50 [3] of 5.55 nM. For the same compound, the IC50 [8] was 23.6 nM, the IC50 [9] was 63.5 nM and the DC50 [4] was at most 50 nM. The Dmax [4] was 80 to 100%, the IC50 [5] was 46.8 nM and the IC50 [11] was 69.5 nM.
